Measured values published in ChEMBL document CHEMBL3525928 (Drug Metab Dispos, 2011).

Experiments:
[1] = test system: Hepatocyte; conditions: human, hepatocytes, 5 min, 0.05 µM
[2] = test system: Hepatocyte; test: Drug uptake in sandwich-cultured human hepatocytes lot Hu4165 at 0.05 uM at 37 degC for 5 mins by scintillation spectroscopy in presence of 100 uM BSP A OATP and […] inhibitor (reference value: 100 +/- 3.1 to 100 +/- 7.0%); format: ADME, cell-based; design: interact cpd dose 100 uM
[3] = test system: Hepatocyte; test: Uptake clearance in sandwich-cultured human hepatocytes lot Hu4165 […] measured per mg of protein at 0.05 to 1 uM at 37 degC on day 5 by scintillation spectroscopy; format: ADME, cell-based
[4] = Drug uptake in rat hepatocytes; format: ADME, cell-based, Hepatocyte
[5] = test system: Hepatocyte; conditions: human, hepatocytes, 5 min, 0.05 µM; remark: listed apart in the source
[6] = test system: Hepatocyte; conditions: human, hepatocytes, 5 min, 0.05 µM; remark: listed apart in the source
[7] = test system: Hepatocyte; conditions: human, hepatocytes, 5 min, 0.05 µM; remark: listed apart in the source
[8] = test system: Hepatocyte; conditions: human, hepatocytes, 5 min, 0.05 µM; remark: listed apart in the source
[9] = test system: Hepatocyte; conditions: human, hepatocytes, 5 min, 0.05 µM; remark: listed apart in the source
[10] = test system: Hepatocyte; test: Drug uptake in sandwich-cultured human hepatocytes measured per mg of protein at 0.05 uM at 37 degC after 5 mins by scintillation spectroscopy; format: ADME, cell-based
[11] = test system: Hepatocyte; test: Drug uptake in sandwich-cultured human hepatocytes at 0.05 uM at 37 degC by scintillation spectroscopy; format: ADME, cell-based
[12] = Drug uptake in sandwich-cultured human hepatocytes at 0.05 to 10 uM at 37 degC by Michaelis-Menten kinetics/scintillation spectroscopy; format: ADME, cell-based, Hepatocyte
[13] = Drug excretion in urine (unknown origin); format: ADME, tissue-based; conditions: human, read-out: Drug excretion
[14] = Drug excretion in bile (unknown origin); format: ADME, tissue-based; conditions: human, read-out: Drug excretion
[15] = test system: Hepatocyte; test: Uptake clearance in sandwich-cultured human hepatocytes measured per mg of protein at 0.05 to 10 uM at 37 degC by scintillation spectroscopy; format: ADME, cell-based
[16] = test system: Hepatocyte; test: Drug uptake in sandwich-cultured human hepatocytes measured per mg of protein at 0.05 uM at 4 degC after 5 mins by scintillation spectroscopy; format: ADME, cell-based
[17] = test system: Hepatocyte; test: Uptake clearance in sandwich-cultured human hepatocytes lot Hu4165 […] measured per mg of protein at 0.05 to 1 uM at 37 degC after 0.5 to 2 mins by scintillation spectroscopy in presence of 100 uM rifamycin SV; format: ADME, cell-based
[18] = test system: Hepatocyte; conditions: human, hepatocytes, 5 min, 0.05 µM; remark: listed apart in the source
[19] = test system: Hepatocyte; conditions: human, hepatocytes, 5 min, 0.05 µM; remark: listed apart in the source
[20] = test system: Hepatocyte; test: Drug uptake in sandwich-cultured human hepatocytes lot Hu4165 at 0.05 uM at 37 degC for 5 mins by scintillation spectroscopy in presence of 500 uM digoxin (1% DMSO) cardiac glycosides (reference value: 100 +/- 3.1 to 100 +/- 7.0%); format: ADME, cell-based
[21] = test system: Hepatocyte; test: Drug uptake in sandwich-cultured human hepatocytes lot Hu4165 at 0.05 uM at 37 degC for 5 mins by scintillation spectroscopy in presence of 50 uM FCCP mitochondrial uncouplers (reference value: 100 +/- 3.1 to 100 +/- 7.0%); format: ADME, cell-based; design: interact cpd dose 50 uM
[22] = test system: Hepatocyte; conditions: human, hepatocytes, 5 min, 0.05 µM; remark: listed apart in the source
[23] = test system: Hepatocyte; conditions: human, hepatocytes, 5 min, 0.05 µM; remark: listed apart in the source
[24] = test system: Hepatocyte; conditions: human, hepatocytes, 5 min, 0.05 µM; remark: listed apart in the source
[25] = test system: Hepatocyte; conditions: human, hepatocytes, 5 min, 0.05 µM; remark: listed apart in the source
[26] = test system: Hepatocyte; conditions: human, hepatocytes, 1 µM
[27] = test system: Hepatocyte; conditions: human, hepatocytes, 5 min, 0.05 µM; remark: listed apart in the source
[28] = test system: Hepatocyte; test: Drug uptake in sandwich-cultured human hepatocytes measured per mg of protein at 0.05 to 10 uM at 37 degC by Michaelis-Menten kinetics/scintillation spectroscopy; format: ADME, cell-based
[29] = test system: Hepatocyte; test: Drug uptake in sandwich-cultured human hepatocytes lot Hu4165 at 0.05 uM at 37 degC for 5 mins by scintillation spectroscopy in presence of 100 uM digoxin cardiac glycosides (reference value: 100 +/- 3.1 to 100 +/- 7.0%); format: ADME, cell-based
[30] = test system: Hepatocyte; conditions: human, hepatocytes, 1 µM; remark: listed apart in the source
[31] = test system: Hepatocyte; conditions: human, hepatocytes, 5 min, 0.05 µM; remark: listed apart in the source
[32] = test system: Hepatocyte; test: Drug uptake in sandwich-cultured human hepatocytes lot Hu4165 at 0.05 uM at 37 degC for 5 mins by scintillation spectroscopy in presence of 100 uM rifampicin OATP substrate/inhibitor (reference value: 100 +/- 3.1 to 100 +/- 7.0%); format: ADME, cell-based; design: interact cpd dose 100 uM
[33] = molecular target: T1, OATP1B3 (Homo sapiens, UniProt Q9NPD5); test: Drug uptake ratio assessed as enzyme-mediated uptake in HEK293 cells expressing human OATP1B3 at 10 uM at 37 degC for 3 mins cells pretreated with sodium butyrate by liquid scintillation spectroscopy relative to wild type; format: ADME, cell-based
T1 sequence (Q9NPD5 whole entry): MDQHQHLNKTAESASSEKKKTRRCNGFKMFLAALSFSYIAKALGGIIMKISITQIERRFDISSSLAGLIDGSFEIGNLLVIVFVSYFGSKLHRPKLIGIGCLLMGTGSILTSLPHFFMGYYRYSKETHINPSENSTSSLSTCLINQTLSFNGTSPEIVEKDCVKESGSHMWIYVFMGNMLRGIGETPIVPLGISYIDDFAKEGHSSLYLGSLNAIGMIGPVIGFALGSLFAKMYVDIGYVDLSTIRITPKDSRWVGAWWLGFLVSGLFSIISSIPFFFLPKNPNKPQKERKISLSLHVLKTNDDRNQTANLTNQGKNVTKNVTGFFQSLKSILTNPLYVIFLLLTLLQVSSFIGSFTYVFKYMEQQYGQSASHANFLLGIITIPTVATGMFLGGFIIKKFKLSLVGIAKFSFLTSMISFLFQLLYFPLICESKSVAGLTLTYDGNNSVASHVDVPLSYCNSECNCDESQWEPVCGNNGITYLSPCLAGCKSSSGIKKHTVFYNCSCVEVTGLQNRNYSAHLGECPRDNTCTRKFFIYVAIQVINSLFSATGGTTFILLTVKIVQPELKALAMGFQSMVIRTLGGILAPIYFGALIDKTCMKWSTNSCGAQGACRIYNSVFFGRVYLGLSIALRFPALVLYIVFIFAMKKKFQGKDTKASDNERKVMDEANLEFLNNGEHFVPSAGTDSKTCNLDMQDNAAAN

[34] = molecular target: T1, OATP1B3; test: Drug uptake ratio assessed as enzyme-mediated uptake in HEK293 cells expressing human OATP1B3 at 1 uM at 37 degC for 3 mins cells pretreated with sodium butyrate by liquid scintillation spectroscopy relative to wild type; format: ADME, cell-based
[35] = molecular target: T1, OATP1B3; test: Drug uptake ratio assessed as enzyme-mediated uptake in HEK293 cells expressing human OATP1B3 at 10 uM at 37 degC for 3 mins by liquid scintillation spectroscopy relative to wild type; format: ADME, cell-based
[36] = molecular target: T1, OATP1B3; test: Drug uptake ratio assessed as enzyme-mediated uptake in HEK293 cells expressing human OATP1B3 at 1 uM at 37 degC for 3 mins by liquid scintillation spectroscopy relative to wild type; format: ADME, cell-based

With `C[C@H]1O[C@@H](O[C@H]2[C@@H](O)C[C@H](O[C@H]3[C@@H](O)C[C@H](O[C@H]4CC[C@@]5(C)[C@H](CC[C@@H]6[C@@H]5C[C@@H](O)[C@]5(C)[C@@H](C7=CC(=O)OC7)CC[C@]65O)C4)O[C@@H]3C)O[C@@H]2C)C[C@H](O)[C@@H]1O` [DIGOXIN] the Drug uptake [1] was 114%, the Drug uptake [2] was 113% and the CLup [3] was 3.6 µL/min/g. For the same compound, the Km [4] was 0.18 µM, the Drug uptake [5] was 45% and the Drug uptake [6] was 115%. The Drug uptake [7] was 50.5%, the Drug uptake [8] was 79.2% and the Drug uptake [9] was 63.1%. For the same compound, the Drug uptake [10] was 153 fmol/min, the Drug uptake [11] was “Active” and the Km at up to 10 µM [12] was 2.39 µM. The dose excreted [13] was 50%, the dose excreted [14] was 30% and the CLup [15] was 1.88 µL/min/g. The Drug uptake [16] was 1.33 fmol/min, the CLup [17] was 4.53 µL/min/g and the Drug uptake [18] was 55.4%. For the same compound, the Drug uptake [19] was 87.4%, the Drug uptake [20] was 55.5% and the Drug uptake [21] was 63.8%. For the same compound, the Drug uptake [22] was 158%, the Drug uptake [23] was 90.5% and the Drug uptake [24] was 89.9%. It also gave a Drug uptake [25] of 110%, a CLup [26] of 1.88 µL/min/g and a Drug uptake [27] of 67.5%. For the same compound, the Vmax [28] was 4.49 pmol/min, the Drug uptake [29] was 48.9% and the CLup [30] was 4.06 µL/min/g. The Drug uptake [31] was 163% and the Drug uptake [32] was 120%.
Compound `C[C@]12CC[C@@H]3c4ccc(O)cc4CC[C@H]3[C@@H]1CC[C@@H]2O[C@@H]1O[C@H](C(=O)O)[C@@H](O)[C@H](O)[C@H]1O` [ESTRADIOL 17B GLUCURONIDE] has an uptake ratio at 0.05 h, 10 µM [33] of 78, an uptake ratio at 0.05 h, 1 µM [34] of 74 and an uptake ratio at 0.05 h, 10 µM [35] of 116. The uptake ratio at 0.05 h, 1 µM [36] was 87.
